The results in this text go back to patent publication US8691820B2, “CDK inhibitors” (Curis, Inc., priority 2008, dated 2014).

A value given as a limit tells only on which side of the number the result lay.

In one data set the target is CDK3 (Homo sapiens, UniProt Q00526). As to the kind of experiment: CDK3 kinase inhibition (Table B). It is filed as biochemical.
For a further data set, the target named is CDK9 (Homo sapiens, UniProt P50750). As to the kind of experiment: CDK9 kinase inhibition (Table B). In kind it is biochemical.
In a further data set the target is CDK4 (Homo sapiens, UniProt P11802). As to the kind of experiment: CDK4 kinase inhibition (Table B). It is filed as biochemical.
The next data set deals with CDK1 (Homo sapiens, UniProt P06493). The data set is described as follows: CDK1 kinase inhibition (Table B). It is filed as biochemical.
A further data set addresses T1, CDK2/cyclinA (Homo sapiens, UniProt P24941).
T1 construct: C-terminal 6His-tagged human full length cdk2 (MW=35 kDa); 6His (C); made in house; host or cells: Sf21 insect cells (baculovirus)
The data set is described as follows: CDK2 kinase assay (33P-ATP, Histone H1 substrate). It is filed as biochemical. As to conditions: 1 μM ATP, 5 μM Histon H1, 2 hours at room temperature. From the text:
CDK2/cyclinA (Accession number for CDK2; EMBL M68520, for cyclin A; EMBL X51688): C-terminal 6His-tagged human full length cdk2 (MW=35 kDa), and N-terminal GST-tagged human full length cyclin A (MW=75 kDa) were expressed individually with baculovirus system in Sf21 insect cells. Recombinant cdk2 protein was purified with Ni2+/NTA agarose and then activated using CAK and repurified by Q Sepharose and Ni2+/NTA agarose. Recombinant cyclin A was purified using glutathione-agarose. They were then mixed in vitro to form protein complex. Recombinant protein complex was measured to be 67% in purity with SDS-PAGE and Coomassie blue staining. Specific activity of purified enzyme was measured to be 158 U/mg, where one unit of cdk2/cyclinA activity is defined as 1 nmol phosphate incorporated into 0.1 mg/ml histone H1 per minute at 30° C. with a final ATP concentration of […]. Enzyme was stored at a concentration of 0.1 mg/ml in 50 mM Tris/HCl pH7.5, 150 mM NaCl, 0.1 mM EGTA, 0.03% Brij-35, 270 mM sucrose, 1 mM benzamidine, 0.2 mM PMSF, 0.1% 2-mercaptoethanol. Frozen solution.
Histon H1 (Substrate for CDK2): Histone H1 (Sigma cat#H4524), was purified as a lysine rich fraction from calf thymus with 93% purity (MW=21.5 kDa). Purified protein was stored at a concentration of 20 mg/ml=930 μM in distilled water.
[…] (0.5 nmol) and 5 μM Histon H1 were mixed in the reaction buffer (20 mM HEPES (pH 7.5), 10 mM MgCl2, 1 mM EGTA, 0.02% Brij 35, 0.02 mg/ml BSA, 0.1 mM Na3VO4, 2 mM DTT) with final concentration of 1 μM ATP and 1% DMSO. The reaction was incubated for 2 hours at room temperature and conversion rate of ATP is about 4.5%. An equal volume of 25% TCA was added to stop the reaction and precipitate the labeled peptides. Precipitated proteins were trapped onto glass fiber B filterplates and excess […] p33 ATP was washed off. The plates were allowed to air-dry prior to the addition of 30 uL/well of Packard Microscint 20. The amount of incorporated isotope was measured using a Perkin Elmer TopCount plate reader. Different concentrations of compounds were added to reaction to assess the activity of compounds to inhibit […]. IC50 was calculated using Prism software with sigmoidal dose-response curve fitting.
The following TABLE B lists compounds representative of the invention and their activity in the CDK2 assay. In this assay, the following grading was used: I≧10 μM, 10 μM>II>1 μM, 1 μM>III>0.1 μM, and IV≦0.1 μM for IC50.

Sequence of CDK9 (P50750 whole entry): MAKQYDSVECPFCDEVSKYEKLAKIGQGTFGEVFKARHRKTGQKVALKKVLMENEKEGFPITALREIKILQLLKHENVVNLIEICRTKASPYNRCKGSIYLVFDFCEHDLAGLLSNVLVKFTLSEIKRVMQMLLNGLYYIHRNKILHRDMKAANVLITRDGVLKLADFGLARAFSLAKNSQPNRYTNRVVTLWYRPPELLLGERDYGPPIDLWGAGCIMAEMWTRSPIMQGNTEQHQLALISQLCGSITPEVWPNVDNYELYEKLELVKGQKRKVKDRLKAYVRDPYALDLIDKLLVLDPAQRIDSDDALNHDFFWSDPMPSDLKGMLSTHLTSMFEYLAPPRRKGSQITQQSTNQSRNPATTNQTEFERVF
Sequence of CDK9 (O60563 whole entry partner): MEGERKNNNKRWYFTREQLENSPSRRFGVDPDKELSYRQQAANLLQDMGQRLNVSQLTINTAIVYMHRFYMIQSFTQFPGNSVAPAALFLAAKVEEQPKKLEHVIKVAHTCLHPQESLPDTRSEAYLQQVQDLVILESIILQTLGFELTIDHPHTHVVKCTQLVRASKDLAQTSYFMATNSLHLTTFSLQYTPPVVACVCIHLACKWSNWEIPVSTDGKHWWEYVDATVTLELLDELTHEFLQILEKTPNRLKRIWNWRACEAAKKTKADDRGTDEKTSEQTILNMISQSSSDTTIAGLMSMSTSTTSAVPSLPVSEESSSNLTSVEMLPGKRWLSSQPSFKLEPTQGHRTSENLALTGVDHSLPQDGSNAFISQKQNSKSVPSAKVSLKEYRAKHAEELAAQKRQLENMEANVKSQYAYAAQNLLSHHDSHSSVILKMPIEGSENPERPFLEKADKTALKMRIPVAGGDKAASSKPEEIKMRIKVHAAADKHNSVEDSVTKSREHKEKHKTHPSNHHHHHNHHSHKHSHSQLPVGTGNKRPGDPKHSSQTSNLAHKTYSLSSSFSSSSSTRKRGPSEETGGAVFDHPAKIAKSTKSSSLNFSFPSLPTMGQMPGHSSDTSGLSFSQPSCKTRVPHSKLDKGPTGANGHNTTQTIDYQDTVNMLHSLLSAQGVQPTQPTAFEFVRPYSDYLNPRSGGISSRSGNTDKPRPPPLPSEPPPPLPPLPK
Sequence of CDK3 (Q00526 whole entry): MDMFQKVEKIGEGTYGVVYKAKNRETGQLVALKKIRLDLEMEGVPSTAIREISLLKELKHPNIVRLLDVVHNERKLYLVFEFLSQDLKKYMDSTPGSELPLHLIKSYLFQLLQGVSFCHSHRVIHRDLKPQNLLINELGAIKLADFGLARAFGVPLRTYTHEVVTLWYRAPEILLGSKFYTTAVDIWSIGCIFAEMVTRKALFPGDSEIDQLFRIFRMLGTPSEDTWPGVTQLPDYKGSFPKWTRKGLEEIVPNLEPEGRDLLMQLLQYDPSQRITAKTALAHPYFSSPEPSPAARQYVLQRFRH
Sequence of CDK3 (P24864 whole entry partner): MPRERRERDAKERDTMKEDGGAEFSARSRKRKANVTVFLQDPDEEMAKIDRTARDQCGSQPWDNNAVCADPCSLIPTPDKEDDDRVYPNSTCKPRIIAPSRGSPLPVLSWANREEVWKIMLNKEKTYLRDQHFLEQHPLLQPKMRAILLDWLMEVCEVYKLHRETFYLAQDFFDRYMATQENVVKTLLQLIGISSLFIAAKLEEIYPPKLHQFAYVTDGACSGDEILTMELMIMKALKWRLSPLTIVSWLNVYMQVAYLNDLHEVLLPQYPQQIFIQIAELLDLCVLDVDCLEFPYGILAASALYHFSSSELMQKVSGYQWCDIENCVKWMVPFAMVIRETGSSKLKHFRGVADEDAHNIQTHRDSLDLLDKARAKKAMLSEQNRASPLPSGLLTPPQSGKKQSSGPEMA
Sequence of CDK4 (P11802 whole entry): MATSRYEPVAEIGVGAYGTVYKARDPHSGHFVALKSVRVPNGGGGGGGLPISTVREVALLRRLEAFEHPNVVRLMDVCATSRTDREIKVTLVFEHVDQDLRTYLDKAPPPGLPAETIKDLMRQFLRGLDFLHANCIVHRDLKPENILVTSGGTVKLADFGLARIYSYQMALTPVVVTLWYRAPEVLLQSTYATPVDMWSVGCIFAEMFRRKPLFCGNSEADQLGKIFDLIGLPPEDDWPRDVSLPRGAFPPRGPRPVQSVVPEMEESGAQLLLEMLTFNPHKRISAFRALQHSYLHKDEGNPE
Sequence of CDK4 (P24385 whole entry partner): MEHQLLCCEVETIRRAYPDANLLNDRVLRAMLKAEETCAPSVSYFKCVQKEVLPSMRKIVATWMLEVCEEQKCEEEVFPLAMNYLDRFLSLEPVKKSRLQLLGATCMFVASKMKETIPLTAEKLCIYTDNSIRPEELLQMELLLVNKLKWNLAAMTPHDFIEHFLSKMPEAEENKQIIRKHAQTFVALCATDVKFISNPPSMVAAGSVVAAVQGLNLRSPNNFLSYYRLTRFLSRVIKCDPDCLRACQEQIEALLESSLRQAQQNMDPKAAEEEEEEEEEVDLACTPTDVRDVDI
Sequence of CDK1 (P06493 whole entry): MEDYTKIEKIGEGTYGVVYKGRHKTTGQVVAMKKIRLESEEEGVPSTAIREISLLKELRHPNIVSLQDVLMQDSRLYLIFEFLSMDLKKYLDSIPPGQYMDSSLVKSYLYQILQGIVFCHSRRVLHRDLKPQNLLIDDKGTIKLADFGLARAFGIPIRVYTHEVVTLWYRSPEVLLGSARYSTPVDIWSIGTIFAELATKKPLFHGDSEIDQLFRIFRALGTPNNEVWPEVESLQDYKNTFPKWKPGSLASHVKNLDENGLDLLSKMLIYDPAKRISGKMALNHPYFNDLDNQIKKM
Sequence of CDK1 (P14635 whole entry partner): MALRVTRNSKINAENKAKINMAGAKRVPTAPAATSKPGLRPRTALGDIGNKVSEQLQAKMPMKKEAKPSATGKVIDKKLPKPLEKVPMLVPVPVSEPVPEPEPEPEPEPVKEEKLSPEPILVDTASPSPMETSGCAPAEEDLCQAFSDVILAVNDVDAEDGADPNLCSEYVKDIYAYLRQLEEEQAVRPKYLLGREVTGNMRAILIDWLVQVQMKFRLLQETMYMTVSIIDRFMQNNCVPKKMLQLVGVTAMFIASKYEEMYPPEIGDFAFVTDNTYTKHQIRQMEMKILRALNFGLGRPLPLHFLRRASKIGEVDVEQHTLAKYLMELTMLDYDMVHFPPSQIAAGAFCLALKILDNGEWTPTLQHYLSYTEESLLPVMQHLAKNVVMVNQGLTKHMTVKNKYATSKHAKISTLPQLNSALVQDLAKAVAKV

By IC50 is commonly meant the concentration that gives 50% inhibition. As to `CC(C)N(O)C(=O)CCCCCCC(=O)Nc1ncc(SCc2ncc(C(C)(C)C)o2)s1` [Compound 5, N^1-(5-((5-tert-butyloxazol-2-yl)methylthio)thiazol-2-yl)-N^8-hydroxy-N^8-isopropyloctanediamide], the IC50 at CDK3 was at most 100 nM; against CDK9 it was at most 100 nM; on CDK4, 100 to 1000 nM; against CDK1 it was at most 100 nM; on CDK2/cyclinA, at most 100 nM.

As to `CC(C)(C)c1cnc(CSc2cnc(NC(=O)CCCCCCC(=O)Nc3ccccc3N)s2)o1` [Compound 18, N^1-(2-aminophenyl)-N^8-(5-((5-tert-butyloxazol-2-yl)methylthio)thiazol-2-yl)octanediamide], the IC50 is at most 100 nM against CDK3; at most 100 nM on CDK9; 100 to 1000 nM on CDK4; at most 100 nM on CDK1; at most 100 nM on CDK2/cyclinA.

One may read the melting point as the temperature of the solid-liquid transition. On to `CC(C)(C)c1cnc(CSc2cnc(NC(=O)CCCCCCC(=O)Nc3cc(C(F)(F)F)ccc3N)s2)o1` [Compound 24, N^1-(2-amino-5-(trifluoromethyl)phenyl)-N^8-(5-((5-tert-butyloxazol-2-yl)methylthio)thiazol-2-yl)octanediamide], for which the melting point lay within 77 to 82 °C. On CDK2/cyclinA, the IC50 is at most 100 nM.

`CC(C)(C)c1cnc(CSc2cnc(NC(=O)CCCCCCC(=O)Nc3ccc(C(F)(F)F)cc3N)s2)o1` [Compound 25, N^1-(2-amino-4-(trifluoromethyl)phenyl)-N^8-(5-((5-tert-butyloxazol-2-yl)methylthio)thiazol-2-yl)octanediamide] registered a melting point of 114 to 116 °C. Besides, on CDK2/cyclinA, the IC50 was at most 100 nM.

Regarding `CC(Sc1cnc(NC(=O)Cc2ccc(OCCCC(=O)Nc3ccccc3N)cc2)s1)c1ncc(C(C)(C)C)o1` (stereo not shown) [Compound 58, N-(2-aminophenyl)-4-(4-(2-(5-(1-(5-tert-butyloxazol-2-yl)ethylthio)thiazol-2-ylamino)-2-oxoethyl)phenoxy)butanamide], at CDK2/cyclinA, the IC50 was at most 100 nM.

As to `CC(C)(C)c1cnc(CSc2cnc(NC(=O)Cc3ccc(OCCCC(=O)Nc4ccc(F)cc4N)cc3)s2)o1` [Compound 59, N-(2-amino-4-fluorophenyl)-4-(4-(2-(5-((5-tert-butyloxazol-2-yl)methylthio)thiazol-2-ylamino)-2-oxoethyl)phenoxy)butanamide], the IC50 against CDK2/cyclinA is at most 100 nM.

In turn, `CC(C)(C)c1cnc(CSc2cnc(NC(=O)Cc3ccc(OCCCC(=O)Nc4cc(F)ccc4N)cc3)s2)o1` [Compound 60, N-(2-amino-5-fluorophenyl)-4-(4-(2-(5-((5-tert-butyloxazol-2-yl)methylthio)thiazol-2-ylamino)-2-oxoethyl)phenoxy)butanamide] came in with an IC50 on CDK2/cyclinA of at most 100 nM.

As for `CC(C)(C)c1cnc(CSc2cnc(NC(=O)Cc3ccc(OCCCC(=O)Nc4ccccc4)cc3)s2)o1` [Compound 61, 4-(4-(2-(5-((5-tert-butyloxazol-2-yl)methylthio)thiazol-2-ylamino)-2-oxoethyl)phenoxy)-N-phenylbutanamide], the IC50 against CDK2/cyclinA was at most 100 nM.

Take `CC(C)(C)c1cnc(CSc2cnc(NC(=O)Cc3ccc(OCCCC(=O)Nc4ccncc4)cc3)s2)o1` [Compound 62, 4-(4-(2-(5-((5-tert-butyloxazol-2-yl)methylthio)thiazol-2-ylamino)-2-oxoethyl)phenoxy)-N-(pyridin-4-yl)butanamide]: the IC50 against CDK2/cyclinA was at most 100 nM.

In turn, `CC(C)(C)c1cnc(CSc2cnc(NC(=O)Cc3ccc(OCCCC(=O)Nc4cccnc4)cc3)s2)o1` [Compound 63, 4-(4-(2-(5-((5-tert-butyloxazol-2-yl)methylthio)thiazol-2-ylamino)-2-oxoethyl)phenoxy)-N-(pyridin-3-yl)butanamide] gave an IC50 on CDK2/cyclinA of at most 100 nM.

For the compound `CC(C)(C)c1cnc(CSc2cnc(NC(=O)Cc3ccc(OCCCC(=O)Nc4ccccn4)cc3)s2)o1` [Compound 64, 4-(4-(2-(5-((5-tert-butyloxazol-2-yl)methylthio)thiazol-2-ylamino)-2-oxoethyl)phenoxy)-N-(pyridin-2-yl)butanamide], the melting point lay within 126 to 129 °C. In addition, the IC50 against CDK2/cyclinA was at most 100 nM.
